Reference: patent US12439917B2, “Method for controlling phakopsora pachyrhizi having resistance against QoI fungicide” (SUMITOMO CHEMICAL COMPANY, LIMITED, priority 2020, dated 2025)

Tests used:
[1] = test system: soybean rust fungus strain with single amino acid substitution of F129L in the cytochrome b gene; details: F129L QoI-resistant soybean rust fungi; background art; cited from earlier work
[2] = test system: soybean rust fungus (Phakopsora pachyrhizi) having an amino acid substitution of F129L on mitochondrial cytochrome b protein; assay: Comparative Test Example 1: soybean leaf disk test versus commercial QoI fungicides; type: in vivo; details: method of Test Example 1
Protocol: A soybean leaf (cv; Kurosengoku) was punched out to 1 cm diameter to prepare a leaf disk. Each 1 mL of 1.2% agar medium was dispensed in 24 well microplate. A piece of the leaf disk was placed on each well. To a mixture of 0.5 μL of Sorpol (registered trademark) 1200KX, 4.5 μL of DMSO, and 5 μL of xylene was added 20 μL of a solution containing 10,000 ppm of the test compound in DMSO. The resulting mixture was diluted with ion exchange water to prepare a spray solution containing a predetermined concentration of the test compound. The spray solution was sprayed in 10 μL per one leaf disk. After 1 day, an aqueous suspension of spores of soybean rust fungus (Phakopsora pachyrhizi) having an amino acid substitution of F129L on mitochondrial cytochrome b protein (1.0×10^5/mL) was inoculated onto the leaf disks. After the inoculation, the microplate was placed in a growth chamber (light on for 6 hours, light off for 18 hours, 23° C. temperature, 60% humidity). After 1 day, the leaf disks were air-dried to disappear water droplets on the surface of the leaf disk, and the microplate was placed again in the growth chamber for 10 to 14 days. Thereafter, a lesion area of soybean rust disease was assessed. […] Here the untreated means that the spray solution containing the test compound was not sprayed onto the leaf disk.
The test was conducted by using as a test compound the compound 1, 4 or 9 of the present invention, the present compound 7, 8, 15, 18, 23, 31 or 37, pyribencarb, azoxystrobin, dimoxystrobin, metominostrobin, Fluoxastrobin, or Kresoxim-methyl at 50 ppm according to a method described in the Test Example 1. The results are indicated in [Table A] and [Table B].

| Compound | efficacy against the resistant fungi [1] | Lesion area (%) at 50 ppm [2] [%] |
| --- | --- | --- |
| CO/N=C(/C(=O)OC)c1ccccc1COc1ccccc1C [Kresoxim-methyl] | reduced to the level of practical problems | 100 |
| CNC(=O)/C(=N/OC)c1ccccc1COc1cc(C)ccc1C [Dimoxystrobin] | reduced to the level of practical problems | 100 |
| Metominostrobin | reduced to the level of practical problems | 100 |
| CO/C=C(\Oc1cc(Cc2ccccc2)ccc1C)C(=O)OC [Present compound 18] | – | 0 |
| COC(=O)NCc1cc(/C(C)=N/OCc2cccc(C)n2)ccc1Cl [Pyribencarb] | reduced to the level of practical problems | 100 |
| CO/C=C(\Oc1cc(C2OCCCO2)ccc1C)C(=O)OC [Compound 4 of the present invention] | – | 10 |
| CO/C=C(\Oc1cc(Oc2ccccc2)ccc1C)C(=O)OC [Present compound 15] | – | 0 |
| CO/C=C(\Oc1cccc(C(=O)c2ccccc2)c1)C(=O)OC [Present compound 8] | – | 10 |
| CO/C=C(/C(=O)OC)N(C)c1cccc(Oc2ccccc2C)c1 [Present compound 7] | – | 10 |
| CO/N=C(/C1=NOCCO1)c1ccccc1Oc1ncnc(Oc2ccccc2Cl)c1F [Fluoxastrobin] | reduced to the level of practical problems | 100 |
| CO/C=C(\Oc1cc(C2CC2)ccc1C)C(=O)OC [Compound 1 of the present invention] | – | 0 |
| CO/C=C(\Oc1cc(/N=C/N(C)c2ccccc2)ccc1C)C(=O)OC [Compound 9 of the present invention] | – | 10 |
| CO/C=C(/C(=O)OC)c1ccccc1Oc1cc(Oc2ccccc2C#N)ncn1 [Azoxystrobin] | reduced to the level of practical problems | 100 |
